Several values for one entry are separate records, joined by “and”; a condition that tells them apart may be missing. Identical values can stand only once.
Legend:
[1] = Serum ribitol measurement by LC/MS-MS; assay type: in vivo
Excerpt: Ribitol was purchased from Sigma (A5502). Sera were collected, and blinded samples were placed in individual wells of a 96-well plate and analyzed by LC/MS-MS. An Applied Biosystems Sciex 4000 (Applied Biosystems; Foster City, Calif.) equipped with a Shimadzu HPLC (Shimadzu Scientific Instruments, Inc.: Columbia, Md.) and Leap auto-sampler (LEAP Technologies; Carrboro, N.C.) were used to detect ribitol from samples and synthetic compound. […] MeOH:ACN (1:1). The following gradient was used: 0-12 min, 5% buffer B; 13-14 min, 95% buffer B, 15-17 min, 5% buffer B. Under these conditions, ribitol eluted at 8.3 min. The metabolite was analyzed using electrospray ionization mass spectrometry operated in positive ion mode, ESI+. Compound concentrations in tissue samples were determined based on standard curves prepared by serial dilutions (200-0.01 μM) of the compound in MeOH:ACN (1:1).

FKRP P448L mutant mice [2] = assay: Muscle function tests (treadmill exhaustion, grip strength) in P448L mice; assay type: in vivo, mouse
Procedure: For treadmill exhaustion test, 17 and 30 weeks old mice were placed on the belt of a five-lane-motorized treadmill (LE8700 treadmill, Panlab/Harvard Apparatus, Barcelona, Spain) supplied with shock grids mounted at the back of the treadmill, which delivered a 0.2 mA current to provide motivation for exercise. Initially, the mice were subjected to an acclimation period (time, 5 min; speed, 8 cm/s, and 0° incline). Immediately after acclimation period, the test commenced with speed increases of 2 cm/s every minute until exhaustion. The test was stopped and the time to exhaustion was determined when the mouse remained on the shock grid for 5 s without attempting to re-engage the treadmill. For grip force test, forelimb and hindlimb in peak torque was measured by a grip strength meter (Columbus Instruments). For forelimb force, the animal was held so that only the forelimb paws grasp the specially designed mouse flat mesh assembly, and was pulled back from the tail until the grip was broken. The force transducer recorded the peak force reached when the animal's grip is broken. For hindlimb force, an angled mesh assembly was used. Mice were allowed to rest on the angled mesh assembly, facing away from the meter with its hindlimbs at least one-half of the way down the length of the mesh. The mouse tail was pulled directly toward the meter and parallel to the mesh assembly. During this procedure, the mice resist by grasping the mesh with all four limbs. Pulling toward the meter was continued until the hindlimbs released from the mesh assembly. Five successful hindlimb and forelimb force measurements within 2 minutes were recorded. The average value was used for analysis. Force was presented as values of KGF (kilogram-force) units normalized to bodyweights (gr) as “Units/gr”. The tests were performed 1 week before euthanasia.

FKRP P448L mutant mice [3] = assay: Ribitol toxicity evaluation: body weight, histology of liver, kidney and spleen, serum biochemical markers; assay type: in vivo, mouse
Procedure: All animal studies were approved by the Institutional Animal Care and Use Committee (IACUC) of Carolinas Medical Center. All mice were housed in the vivarium of Carolinas Medical Center following animal care guidelines of the institute. Animals were ear tagged prior to group assignment. Food and water were available ad libitum during all phase of the study. Body weight was measured from 6 weeks to 19 weeks of age.
Ribitol was purchased from Sigma (A5502 Adonitol, ≥98%, Sigma, St. Louis) and dissolved in drinking water to the final concentration of 5% or 10%. P448L mice aged at 4 weeks were treated with 5% ribitol drinking water for 1 month and P448L mice aged at 7 weeks were treated with 5% ribitol drinking water for 3 months and 6 months. All the mice were randomly assigned to either treatment or control groups. And a minimum number of 4 mice were used for each group. No animal was excluded. P448L female breeders were given 10% ribitol in drinking water during pregnancy, and pups continued to be treated with 10% ribitol in drinking water until they were euthanized at 19 weeks of age. Untreated age-matched P448L and wild-type C57BL/6 mice were used as controls. The animals were terminated at the end of each treatment time point and tissues including heart, diaphragm, TA, quadriceps, liver, spleen and kidney were collected for analyses.
Frozen tissues were processed for hematoxylin and eosin (H&E) and Masson's Trichrome staining following standard procedures. Muscle cross-sectional fiber equivalent diameter was determined from tibialis anterior and quadriceps stained with H&E using MetaMorph v7.7 Software (Molecular Devices). Percentage of centrally nucleated myofibers were manually quantified from the same tissue sections stained with H&E. Fibrotic area represented by blue staining in the Masson's Trichrome stained sections was quantified from heart, diaphragm, tibialis anterior and quadriceps using ImageJ software. For all the morphometric analyses, a total of 300 to 400 fibers from two representative 20× magnification images per each muscle per animal were used.

FKRP P448L mutant mice [4] = assay: Whole body plethysmography (respiratory function) in P448L mice; assay type: in vivo, mouse
Procedure: Respiratory functional analysis in conscious, freely moving 18 and 31 weeks old mice were measured using a whole-body plethysmography technique. The plethysmograph apparatus (Emka Technologies, Falls Church, Va.) was connected to a ventilation pump for the purpose of maintaining a constant air flow, a differential pressure transducer, a usbAMP signal amplifier, and a computer running EMKA iox2 software with the respiratory flow analyzer module, which was used to detect pressure changes due to breathing and recording the transducer signal. An initial amount of 20 mL of air was injected and withdrawn via a 20 mL syringe into the chamber for the purpose of calibration. Mice were placed inside the “free moving” plethysmograph chamber and allowed to acclimate for 5 min in order to minimize any effects of stress related changes in ventilation. Resting ventilation was measured for a duration of 15 min after the acclimation period. Body temperatures of all mice were assumed to be 37° C. and to remain constant during the ventilation protocol.

[5] = 5% ribitol in drinking water (n = 4)
[6] = 10% ribitol from pregnancy, 18 weeks of age

Q: With `OC[C@@H](O)[C@@H](O)[C@@H](O)CO` [ribitol] as the compound, how does the Mean serum ribitol [1, 5] read?
A: 2355 ug ug/L

Q: And the “Serum ribitol, individual animals” value [1, 5]?
A: 924 ng/ml and 4221 ng/ml and 3184 ng/ml and 1092, ng/ml

Q: What about the “Therapeutic serum concentration in excess of normal ribitol serum levels” value ([1]; about 10 mg/L vs normal serum level) of the same compound?
A: roughly 1000 ×

Q: What about the “Tolerability at therapeutic serum concentration” value ([1]; serum about 10 mg/L) of the same compound?
A: no observable side effects

Q: And the “Limb muscle function (treadmill exhaustion test)” value (FKRP P448L mutant mice [2]; 5% ribitol, 3 and 6 months)?
A: significant improvement in limb muscle function was not demonstrated

Q: What about the “Treadmill running distance and time vs untreated” value (FKRP P448L mutant mice [2]; 10% ribitol from pregnancy, 17 weeks of age) of the same compound?
A: significantly longer

Q: And the “Grip strength, forelimb force vs untreated” value (FKRP P448L mutant mice [2]; [6])?
A: significant improvement

Q: And the “Histology of liver, kidney and spleen (H&E)” value (FKRP P448L mutant mice [3]; 5% ribitol, 3 or 6 months)?
A: normal structure without degeneration and inflammation

Q: What about the “Serum markers of liver and kidney function (ALP, ALT, t-Bil, c-Bil, unc-Bil, BUN, Crea), treated vs untreated” value (FKRP P448L mutant mice [3]; 5% ribitol, 6 months) of the same compound?
A: No statistical significance

Q: What about the “Serum triglycerides (TRG) and glucose (GLU), treated vs untreated” value (FKRP P448L mutant mice [3]; 5% ribitol, 6 months) of the same compound?
A: similar

Q: What about the “Body weight vs age-matched untreated P448L” value (FKRP P448L mutant mice [3]; 10% ribitol from embryonic stage or 5% ribitol from 7 weeks of age, all time points) of the same compound?
A: No significant difference

Q: And the “Effect on pregnancy, embryo development, body weight and overall behavior” value (FKRP P448L mutant mice [3]; oral ribitol from pregnancy to adult)?
A: does not affect

Q: And the “Tidal volume (TV), expiratory volume (EV), minute volume (MV) vs untreated” value (FKRP P448L mutant mice [4]; 5% ribitol, 3 and 6 months)?
A: trend of improvement

Q: And the “Improvement in EV and MV” value (FKRP P448L mutant mice [4]; 5% ribitol, 6 months)?
A: statistically significant

Q: And the “Peak inspiratory flow (PIF) and peak expiratory flow (PEF)” value (FKRP P448L mutant mice [4]; 5% ribitol, 6 months)?
A: Improvement was also observed

Q: And the “Expired volume (EV), relaxation time (RT), enhanced pause (Penh)” value (FKRP P448L mutant mice [4]; [6])?
A: improvement

Q: What about the “Minute volume (MV) and end-expiratory pause (EEP) vs untreated” value (FKRP P448L mutant mice [4]; [6]) of the same compound?
A: reaching significant difference
